Assay: clinical
Protocol: Clinical Trial Outline. […] All solid tumor types are eligible for the trial. […] An expansion cohort was included at the RP2D level to confirm safety and tolerability of the combination. […] In Part 2, patients were treated by giving both agents twice daily (BID dosing schedule).
Plasma samples were analyzed for AMXT 1501 concentration via a LC/MS^2 procedure (MI-0028-DB-AB; Agilux Laboratories, Worcester, Massachusetts), and the resulting concentration versus time data were used to estimate individual PK parameters using noncompartmental analysis (NCA).

CCCCCCCCCCCCCCCC(=O)NCCCC[C@@H](N)C(=O)NCCCNCCCCNCCCN [AMXT 1501, D-lys(palmitoyl)-spermine]
Cmax (human, plasma, oral, 400 mg, Cmax Median, Part 1 Cohort 3, 400 mg QD, Day 1): 52.5 ng/mL | Tmax (human, plasma, oral, 400 mg, Tmax Mean, Part 1 Cohort 3, 400 mg QD, Cycle 1 Day 14): 5 h | Tmax (human, plasma, oral, 400 mg, Tmax Mean, Part 1 Cohort 3, 400 mg QD, Day 1): 5 h | Tmax (human, plasma, oral, 400 mg, Tmax Median, Part 1 Cohort 3, 400 mg QD, Cycle 1 Day 14): 5 h | Tmax (human, plasma, oral, 400 mg, Tmax Median, Part 1 Cohort 3, 400 mg QD, Day 1): 5 h | AUC(0-t) (human, plasma, oral, 1200 mg, AUC0-6 hr Mean, Part 1 Cohort 4, 1200 mg QD, Cycle 1 Day 1): 197 ng·h/mL | AUC(0-t) (human, plasma, oral, 1200 mg, AUC0-6 hr Mean, Part 1 Cohort 4, 1200 mg QD, Cycle 1 Day 14): 1130 ng·h/mL | AUC(0-t) (human, plasma, oral, 1200 mg, AUC0-6 hr Median, Part 1 Cohort 4, 1200 mg QD, Cycle 1 Day 1): 238 ng·h/mL | AUC(0-t) (human, plasma, oral, 1200 mg, AUC0-6 hr Median, Part 1 Cohort 4, 1200 mg QD, Cycle 1 Day 14): 681 ng·h/mL | AUC(0-t) (human, plasma, oral, 1200 mg, AUC0-t Mean, Part 1 Cohort 4, 1200 mg QD, Cycle 1 Day 1): 2730 ng·h/mL | AUC(0-t) (human, plasma, oral, 1200 mg, AUC0-t Mean, Part 1 Cohort 4, 1200 mg QD, Cycle 1 Day 14): 4700 ng·h/mL | AUC(0-t) (human, plasma, oral, 1200 mg, AUC0-t Median, Part 1 Cohort 4, 1200 mg QD, Cycle 1 Day 1): 831 ng·h/mL | AUC(0-t) (human, plasma, oral, 1200 mg, AUC0-t Median, Part 1 Cohort 4, 1200 mg QD, Cycle 1 Day 14): 3490 ng·h/mL | Cmax (human, plasma, oral, 1200 mg, Cmax Mean, Part 1 Cohort 4, 1200 mg QD, Cycle 1 Day 1): 104 ng/mL | Cmax (human, plasma, oral, 1200 mg, Cmax Mean, Part 1 Cohort 4, 1200 mg QD, Cycle 1 Day 14): 276 ng/mL | Cmax (human, plasma, oral, 1200 mg, Cmax Median, Part 1 Cohort 4, 1200 mg QD, Cycle 1 Day 1): 71.2 ng/mL | Cmax (human, plasma, oral, 1200 mg, Cmax Median, Part 1 Cohort 4, 1200 mg QD, Cycle 1 Day 14): 227 ng/mL | Tmax (human, plasma, oral, 1200 mg, Tmax Mean, Part 1 Cohort 4, 1200 mg QD, Cycle 1 Day 1): 11.3 h | Tmax (human, plasma, oral, 1200 mg, Tmax Mean, Part 1 Cohort 4, 1200 mg QD, Cycle 1 Day 14): 6 h | Tmax (human, plasma, oral, 1200 mg, Tmax Median, Part 1 Cohort 4, 1200 mg QD, Cycle 1 Day 1): 6 h | Tmax (human, plasma, oral, 1200 mg, Tmax Median, Part 1 Cohort 4, 1200 mg QD, Cycle 1 Day 14): 6 h | AUC (human, plasma, oral, 1800 mg): 14200 ng·h/mL | AUC(0-t) (human, plasma, oral, 1800 mg, AUC0-6 hr Mean, Part 1 Cohort 5, 1800 mg QD, Cycle 1 Day 1): 750 ng·h/mL | AUC(0-t) (human, plasma, oral, 1800 mg, AUC0-6 hr Mean, Part 1 Cohort 5, 1800 mg QD, Cycle 1 Day 14): 3110 ng·h/mL | AUC(0-t) (human, plasma, oral, 1800 mg, AUC0-6 hr Mean, Part 1 Cohort 5, 1800 mg QD, Cycle 2 Day 14, n=1): 7240 ng·h/mL | AUC(0-t) (human, plasma, oral, 1800 mg, AUC0-6 hr Median, Part 1 Cohort 5, 1800 mg QD, Cycle 1 Day 1): 662 ng·h/mL | AUC(0-t) (human, plasma, oral, 1800 mg, AUC0-6 hr Median, Part 1 Cohort 5, 1800 mg QD, Cycle 1 Day 14): 3020 ng·h/mL | AUC(0-t) (human, plasma, oral, 1800 mg, AUC0-6 hr Median, Part 1 Cohort 5, 1800 mg QD, Cycle 2 Day 14, n=1): 7240 ng·h/mL | AUC(0-t) (human, plasma, oral, 1800 mg, AUC0-t Mean, Part 1 Cohort 5, 1800 mg QD, Cycle 1 Day 1): 10200 ng·h/mL | AUC(0-t) (human, plasma, oral, 1800 mg, AUC0-t Mean, Part 1 Cohort 5, 1800 mg QD, Cycle 1 Day 14): 14200 ng·h/mL | AUC(0-t) (human, plasma, oral, 1800 mg, AUC0-t Mean, Part 1 Cohort 5, 1800 mg QD, Cycle 2 Day 14, n=1): 33700 ng·h/mL | AUC(0-t) (human, plasma, oral, 1800 mg, AUC0-t Median, Part 1 Cohort 5, 1800 mg QD, Cycle 1 Day 1): 12700 ng·h/mL | AUC(0-t) (human, plasma, oral, 1800 mg, AUC0-t Median, Part 1 Cohort 5, 1800 mg QD, Cycle 1 Day 14): 12800 ng·h/mL | AUC(0-t) (human, plasma, oral, 1800 mg, AUC0-t Median, Part 1 Cohort 5, 1800 mg QD, Cycle 2 Day 14, n=1): 33700 ng·h/mL | Cmax (human, plasma, oral, 1800 mg, Cmax Mean, Part 1 Cohort 5, 1800 mg QD, Cycle 1 Day 1): 367 ng/mL | Cmax (human, plasma, oral, 1800 mg, Cmax Mean, Part 1 Cohort 5, 1800 mg QD, Cycle 1 Day 14): 794 ng/mL | Cmax (human, plasma, oral, 1800 mg, Cmax Mean, Part 1 Cohort 5, 1800 mg QD, Cycle 2 Day 14, n=1): 1950 ng/mL | Cmax (human, plasma, oral, 1800 mg, Cmax Median, Part 1 Cohort 5, 1800 mg QD, Cycle 1 Day 1): 374 ng/mL | Cmax (human, plasma, oral, 1800 mg, Cmax Median, Part 1 Cohort 5, 1800 mg QD, Cycle 1 Day 14): 766 ng/mL | Cmax (human, plasma, oral, 1800 mg, Cmax Median, Part 1 Cohort 5, 1800 mg QD, Cycle 2 Day 14, n=1): 1950 ng/mL | Tmax (human, plasma, oral, 1800 mg, Tmax Mean, Part 1 Cohort 5, 1800 mg QD, Cycle 1 Day 14): 5.5 h | Tmax (human, plasma, oral, 1800 mg, Tmax Mean, Part 1 Cohort 5, 1800 mg QD, Cycle 2 Day 14, n=1): 6 h | Tmax (human, plasma, oral, 1800 mg, Tmax Median, Part 1 Cohort 5, 1800 mg QD, Cycle 1 Day 1): 6 h | Tmax (human, plasma, oral, 1800 mg, Tmax Median, Part 1 Cohort 5, 1800 mg QD, Cycle 1 Day 14): 6 h | Tmax (human, plasma, oral, 1800 mg, Tmax Median, Part 1 Cohort 5, 1800 mg QD, Cycle 2 Day 14, n=1): 6 h | Cmax (human, plasma, oral, 1800 mg, average Cmax, plasma AMXT 1501, Part 1 Cohort 5, 1,800 mg, repeat dosing Day 14, n=4): 794 ng/mL | AUC(0-t) (human, plasma, oral, AUC0-6 hr Mean, Part 1 Cohort 1, 80 mg QD, Cycle 1 Day 28, +DFMO 500 mg/day): 60.5 ng·h/mL | AUC(0-t) (human, plasma, oral, AUC0-6 hr Mean, Part 1 Cohort 2, 160 mg QD, Cycle 1 Day 28, +DFMO 500 mg/day): 88.6 ng·h/mL | AUC(0-t) (human, plasma, oral, AUC0-6 hr Mean, Part 1 Cohort 3, 400 mg QD, Cycle 1 Day 28, +DFMO 500 mg/day): 234 ng·h/mL | AUC(0-t) (human, plasma, oral, AUC0-6 hr Mean, Part 1 Cohort 5, 1800 mg QD, Cycle 1 Day 28, +DFMO 500 mg/day): 1860 ng·h/mL | AUC(0-t) (human, plasma, oral, AUC0-6 hr Median, Part 1 Cohort 1, 80 mg QD, Cycle 1 Day 28, +DFMO 500 mg/day): 62.9 ng·h/mL | AUC(0-t) (human, plasma, oral, AUC0-6 hr Median, Part 1 Cohort 2, 160 mg QD, Cycle 1 Day 28, +DFMO 500 mg/day): 84.8 ng·h/mL | AUC(0-t) (human, plasma, oral, AUC0-6 hr Median, Part 1 Cohort 3, 400 mg QD, Cycle 1 Day 28, +DFMO 500 mg/day): 93.8 ng·h/mL | AUC(0-t) (human, plasma, oral, AUC0-6 hr Median, Part 1 Cohort 5, 1800 mg QD, Cycle 1 Day 28, +DFMO 500 mg/day): 1430 ng·h/mL | AUC(0-t) (human, plasma, oral, AUC0-t Mean, Part 1 Cohort 1, 80 mg QD, Cycle 1 Day 28, +DFMO 500 mg/day): 169 ng·h/mL | AUC(0-t) (human, plasma, oral, AUC0-t Mean, Part 1 Cohort 2, 160 mg QD, Cycle 1 Day 28, +DFMO 500 mg/day): 150 ng·h/mL | AUC(0-t) (human, plasma, oral, AUC0-t Mean, Part 1 Cohort 3, 400 mg QD, Cycle 1 Day 28, +DFMO 500 mg/day): 791 ng·h/mL | AUC(0-t) (human, plasma, oral, AUC0-t Mean, Part 1 Cohort 5, 1800 mg QD, Cycle 1 Day 28, +DFMO 500 mg/day): 7370 ng·h/mL | AUC(0-t) (human, plasma, oral, AUC0-t Median, Part 1 Cohort 1, 80 mg QD, Cycle 1 Day 28, +DFMO 500 mg/day): 62.9 ng·h/mL | AUC(0-t) (human, plasma, oral, AUC0-t Median, Part 1 Cohort 2, 160 mg QD, Cycle 1 Day 28, +DFMO 500 mg/day): 112 ng·h/mL | AUC(0-t) (human, plasma, oral, AUC0-t Median, Part 1 Cohort 3, 400 mg QD, Cycle 1 Day 28, +DFMO 500 mg/day): 422 ng·h/mL | AUC(0-t) (human, plasma, oral, AUC0-t Median, Part 1 Cohort 5, 1800 mg QD, Cycle 1 Day 28, +DFMO 500 mg/day): 6920 ng·h/mL | Cmax (human, plasma, oral, Cmax Mean, Part 1 Cohort 1, 80 mg QD, Cycle 1 Day 28, +DFMO 500 mg/day): 16.4 ng/mL | Cmax (human, plasma, oral, Cmax Mean, Part 1 Cohort 2, 160 mg QD, Cycle 1 Day 28, +DFMO 500 mg/day): 23.7 ng/mL | Cmax (human, plasma, oral, Cmax Mean, Part 1 Cohort 3, 400 mg QD, Cycle 1 Day 28, +DFMO 500 mg/day): 55.8 ng/mL | Cmax (human, plasma, oral, Cmax Mean, Part 1 Cohort 5, 1800 mg QD, Cycle 1 Day 28, +DFMO 500 mg/day): 401 ng/mL | Cmax (human, plasma, oral, Cmax Median, Part 1 Cohort 1, 80 mg QD, Cycle 1 Day 28, +DFMO 500 mg/day): 15.1 ng/mL | Cmax (human, plasma, oral, Cmax Median, Part 1 Cohort 2, 160 mg QD, Cycle 1 Day 28, +DFMO 500 mg/day): 23.2 ng/mL | Cmax (human, plasma, oral, Cmax Median, Part 1 Cohort 3, 400 mg QD, Cycle 1 Day 28, +DFMO 500 mg/day): 20.3 ng/mL | Cmax (human, plasma, oral, Cmax Median, Part 1 Cohort 5, 1800 mg QD, Cycle 1 Day 28, +DFMO 500 mg/day): 321 ng/mL | Tmax (human, plasma, oral, Tmax Mean, Part 1 Cohort 1, 80 mg QD, Cycle 1 Day 28, +DFMO 500 mg/day): 11.3 h | Tmax (human, plasma, oral, Tmax Mean, Part 1 Cohort 2, 160 mg QD, Cycle 1 Day 28, +DFMO 500 mg/day): 4.5 h | Tmax (human, plasma, oral, Tmax Mean, Part 1 Cohort 3, 400 mg QD, Cycle 1 Day 28, +DFMO 500 mg/day): 11.3 h | Tmax (human, plasma, oral, Tmax Mean, Part 1 Cohort 5, 1800 mg QD, Cycle 1 Day 28, +DFMO 500 mg/day): 4.67 h | Tmax (human, plasma, oral, Tmax Median, Part 1 Cohort 1, 80 mg QD, Cycle 1 Day 28, +DFMO 500 mg/day): 6 h | Tmax (human, plasma, oral, Tmax Median, Part 1 Cohort 2, 160 mg QD, Cycle 1 Day 28, +DFMO 500 mg/day): 4 h | Tmax (human, plasma, oral, Tmax Median, Part 1 Cohort 3, 400 mg QD, Cycle 1 Day 28, +DFMO 500 mg/day): 6 h | Tmax (human, plasma, oral, Tmax Median, Part 1 Cohort 5, 1800 mg QD, Cycle 1 Day 28, +DFMO 500 mg/day): 4 h | Cmax (human, plasma, oral, mean Cmax, plasma AMXT 1501, n=9 patients, 1,200 mg daily split BID plus 1,000 mg daily DFMO split BID): 493 ng/mL | Cmax (human, plasma, oral, plasma AMXT 1501 Cmax with no DLTs observed, a couple of adult patients): > 1000 ng/mL | Cmax (human, plasma, oral, plasma Cmax, AMXT 1501, melanoma patient, 1,200 mg daily split BID plus 1,000 mg daily DFMO): 239 ng/mL | effect of co-administration of DFMO on PK of AMXT 1501 (patients, DFMO co-administration): no obvious effect | dose dependence of mean AMXT 1501 exposure (single or repeat PO dosing, dose levels of 160 mg and higher): increased in a dose-dependent manner | plasma AMXT 1501 level achieved (three patients in First-in-Human trial): 1,000 ng/mL

Source: US20230321012A1 (priority 2021, published 2023)
